According to patent US20240425523A1, “Compounds for the Degradation of EGFR Kinase” (Beigene Switzerland GMBH, priority 2023, published 2024):

Key:
Type in all cases: cell-based
[1] = molecular target: T1, EGFR L858R (BaF3-L858R cells) (Homo sapiens, UniProt P00533, L858R); experiment: Cell degradation of EGFR, HTRF assay, BaF3-L858R cells; conditions: 16 h treatment; for DC50: EGFR degradation
T1 construct: host or cells: BaF3
Experimental: (§1) BaF3-L858R (abbv. L858R) cell were purchased from Kangyuan Bochuang Biotechnology (Beijing) Co., Ltd.
(§2) H1975-#8 and BaF3-L858R cells are treated with compounds diluted in 0.1% DMSO cell culture medium on day 2, incubate for 16 h, 37° C., 5% CO2. the final concentration of compounds in all assay is start with 10 uM, 5-fold dilution, total 8 doses were included.
(§3) After 16 h treatment, for H1975-#8 cells, add 100 ul HTRF 1× lysis buffer to each well; for BaF3-L858R cells, add 20 μl 4× lysis buffer to each well; seal the plate and incubate 1 hour at room temperature on a plate shaker; Once the cells are lysed, 16 μL of cell lysate are transferred to a PE 384-well HTRF detection plate; 4 μL of pre-mixed HTRF antibodies are added to each well; Cover the plate with a plate sealer, spin 1000 rpm for 1 min, Incubate overnight at room temperature; Read on BMG PheraStar with HTRF protocol (337 nm-665 nm-620 nm).
(§4) High control=Cell group with added DMSO and without compound, indicating microplate readings without EGFR degradation;
(§5) Dmax is the maximum percentage of inhibition (degradation).
(§6) The IC50 (DC50) value of a compound can be obtained by fitting the following equation
(§7) Y=Bottom+(TOP−Bottom)/(1+((IC50/X)^hillslope))
(§8) Wherein, X and Y are known values, and IC50, Hillslope, Top and Bottom are the parameters obtained by fitting with software. […] The experimental data were fitted by calculating and analyzing with Dotmatics data analysis software.

[2] = molecular target: T2, EGFR-L858R/C797S (H1975-clone #8 cells) (Homo sapiens, UniProt P00533, C797S/L858R); experiment: Cell degradation of EGFR, HTRF assay, H1975-clone#8 (L858R/C797S) cells; conditions: 16 h treatment; for DC50: EGFR degradation
T2 construct: expressed in transfected cells; host or cells: H1975 (endogenous EGFR knocked out, clone #8)
Experimental: (§9) The EGFR over-expressed cells then underwent knockout, in which the EGFR targeting sgRNA was designed to only target the endogenous EGFR copies and preserve the exogenous EGFR copies. Followed by the knockout, the edited H1975 cells were seeded in 96 well plates at the concentration of 1 cell/cell, cultured for about 2 weeks to allow single clones formation. The formed clones were screened by DNA sequencing and whole exon sequencing analysis for the desired edition.
as §2, §3, §4, §5, §6, §7, §8

[3] = molecular target: T3, p-EGFR L858R (BaF3-L858R cells) (Homo sapiens, UniProt P00533, L858R); experiment: Cell p-EGFR inhibition assay, HTRF, BaF3-L858R cells; conditions: 16 h treatment; for Imax (%): maximum percentage of pEGFR inhibition; for IC50: pEGFR inhibition
T3 construct: host or cells: BaF3
Experimental: as §1
(§10) H1975-#23 and BaF3-L858R cells are treated with compounds diluted in 0.1% DMSO cell culture medium on day 2, incubate for 16 h, 37° C., 5% CO2. the final concentration of compounds in all assay is start with 10 uM, 5-fold dilution, total 8 doses were included.
as §3, with “for H1975-#23” for “for H1975-#8”, “add 50” for “add 100”
(§11) High control=Cell group with added DMSO and without compound, indicating microplate readings without p-EGFR inhibited.
(§12) Imax is the maximum percentage of inhibition.
(§13) The IC50 value of a compound can be obtained by fitting the following equation.
as §8

[4] = molecular target: p-EGFR Del19/C797S (H1975-clone #23 cells) (Homo sapiens, UniProt P00533); experiment: Cell p-EGFR inhibition assay, HTRF, H1975-clone#23 (DEL19/C797S) cells; conditions: 16 h treatment; for Imax (%): maximum percentage of pEGFR inhibition; for IC50: pEGFR inhibition
Experimental: as §9, with “cell/well,” for “cell/cell,”
as §10
as §3, with “for H1975-#23” for “for H1975-#8”, “add 50” for “add 100”
as §11, §12, §13, §8

[5] = maximum percentage of degradation

Molecule: 3-((5-(4-((S)-2-(methoxymethyl)-4-((7^1R,7^3S,E)-1^1,1^3,2^6-trimethyl-3-oxo-5^2,5^3-dihydro-1^1H,5^1H-9-oxa-4-aza-5(2,1)-benzo[d]imidazola-2(2,4)-pyridina-1(4,5)-pyrazola-7(1,3)-cyclopentanacyclononaphane-5^6-yl)piperazin-1-yl)piperidin-1-yl)-4,6-dimethylpyridin-2-yl)oxy)piperidine-2,6-dione [Example 167]
- DC50 [1]: 4.72 nM
- Dmax (%) [1, 5]: 83.25%
- DC50 [2]: 4.33 nM
- Dmax (%) [2, 5]: 88.56%
- Imax (%) [3]: 98.09%
- IC50 [3]: 6.86 nM
- Imax (%) [4]: 102.84%
- IC50 [4]: 3.01 nM

Molecule: Cc1cc2cc(n1)-c1cnn(C)c1OC[C@H]1CCC(C1)CN1/C(=N/C2=O)Nc2ccc(N3CCN([C@H]4CCN(c5cc(F)c([C@H]6CCC(=O)NC6=O)c(F)c5)C[C@H]4F)CC3)cc21 (single isomer, unassigned) [Example 84]
- DC50 [1]: 4.01 nM
- Dmax [1, 5]: 79.7%
- DC50 [2]: 2.1 nM
- Dmax [2, 5]: 64.7%
- Imax (%) [3]: 109.3%
- IC50 [3]: 6 nM
- Imax (%) [4]: 100.5%
- IC50 [4]: 0.5 nM

Molecule: Cc1cc2cc(n1)-c1cnn(C)c1OC[C@H]1CCC(C1)CN1/C(=N/C2=O)Nc2ccc(N3CCC(N4CCC(Nc5cc(F)c([C@H]6CCC(=O)NC6=O)c(F)c5)CC4)CC3)cc21 (single isomer, unassigned) [Example 116]
- DC50 [1]: 1.25 nM
- Dmax [1, 5]: 85.4%
- DC50 [2]: 0.61 nM
- Dmax [2, 5]: 83.4%
- Imax (%) [3]: 98.5%
- IC50 [3]: 7.9 nM
- Imax (%) [4]: 99.4%
- IC50 [4]: 0.8 nM

Molecule: Cc1cc2cc(n1)-c1c(C)nn(C)c1OC[C@H]1CC[C@H](C1)CN1/C(=N/C2=O)Nc2ccc(N3CCN([C@H]4CCN(c5cc(F)c([C@H]6CCC(=O)NC6=O)c(F)c5)C4)CC3)cc21 (single isomer, unassigned) [Example 186]
- DC50 [1]: 3.82 nM
- Dmax [1, 5]: 80%
- DC50 [2]: 2.92 nM
- Dmax [2, 5]: 80.4%
- Imax (%) [3]: 92%
- IC50 [3]: 4.77 nM
- Imax (%) [4]: 100.56%
- IC50 [4]: 2.37 nM

Molecule: Cc1cc2cc(n1)-c1c(C)nn(C)c1OC[C@H]1CC[C@H](C1)CN1/C(=N/C2=O)Nc2ccc(N3CCC(N4CCC(Nc5cc(F)c([C@H]6CCC(=O)NC6=O)c(F)c5)CC4)CC3)cc21 (single isomer, unassigned) [Example 213]
- DC50 [1]: 2.18 nM
- Dmax [1, 5]: 88.3%
- DC50 [2]: 0.63 nM
- Dmax [2, 5]: 82.5%
- Imax (%) [3]: 88.33%
- IC50 [3]: 0.871 nM
- Imax (%) [4]: 98.77%
- IC50 [4]: 1.69 nM

Molecule: Cc1cc2cc(n1)-c1cnn(C)c1OC[C@H]1CC[C@H](C1)CN1/C(=N/C2=O)Nc2ccc(N3CCN(CC4CN(c5ccc6c(c5)CN(C5CCC(=O)NC5=O)C6=O)C4)CC3)cc21 (some centres unmarked) [Example 35, 3-(5-(3-((4-((7^1R,7^3S,E)-1^1,2^6-dimethyl-3-oxo-5^2,5^3-dihydro-1^1H,5^1H-9-oxa-4-aza-5(2,1)-benzo[d]imidazola-2(2,4)-pyridina-1(4,5)-pyrazola-7(1,3)-cyclopentanacyclononaphane-5^6-yl)piperazin-1-yl)methyl)azetidin-1-yl)-1-oxoisoindolin-2-yl)piperidine-2,6-dione]
- DC50 [1]: 0.49 nM
- Dmax [1, 5]: 91.8%
- DC50 [2]: 0.6 nM
- Dmax [2, 5]: 58%
- Imax (%) [3]: 91.6%
- IC50 [3]: 1.3 nM
- Imax (%) [4]: 101.1%
- IC50 [4]: 0.5 nM

Molecule: Cc1cc2cc(n1)-c1cnn(C)c1OC[C@H]1CC[C@H](C1)CN1/C(=N/C2=O)Nc2ccc(N3CCN(C4CCN(c5ccc(OC6CCC(=O)NC6=O)cc5)CC4)CC3)cc21 (some centres unmarked) [Example 57, 3-(4-(4-(4-((7^1R,7^3S,E)-1^1,2^6-dimethyl-3-oxo-5^2,5^3-dihydro-1^1H,5^1H-9-oxa-4-aza-5(2,1)-benzo[d]imidazola-2(2,4)-pyridina-1(4,5)-pyrazola-7(1,3)-cyclopentanacyclononaphane-5^6-yl)piperazin-1-yl)piperidin-1-yl)phenoxy)piperidine-2,6-dione]
- DC50 [1]: 3.84 nM
- Dmax [1, 5]: 82.6%
- DC50 [2]: 3.14 nM
- Dmax [2, 5]: 58.5%
- Imax (%) [3]: 101%
- IC50 [3]: 10.5 nM
- Imax (%) [4]: 97.9%
- IC50 [4]: 1.2 nM

Molecule: Cc1cc2cc(n1)-c1cnn(C)c1OC[C@H]1CC[C@H](C1)CN1/C(=N/C2=O)Nc2ccc(N3CCN(C4CCN(c5ccc(NC6CCC(=O)NC6=O)cc5F)CC4)CC3)cc21 (some centres unmarked) [Example 59, 3-((4-(4-(4-((7^1R,7^3S,E)-1^1,2^6-dimethyl-3-oxo-5^2,5^3-dihydro-1^1H,5^1H-9-oxa-4-aza-5(2,1)-benzo[d]imidazola-2(2,4)-pyridina-1(4,5)-pyrazola-7(1,3)-cyclopentanacyclononaphane-5^6-yl)piperazin-1-yl)piperidin-1-yl)-3-fluorophenyl)amino)piperidine-2,6-dione]
- DC50 [1]: 3.18 nM
- Dmax [1, 5]: 85.1%
- DC50 [2]: 2.87 nM
- Dmax [2, 5]: 69%
- Imax (%) [3]: 102.5%
- IC50 [3]: 7 nM
- Imax (%) [4]: 99.6%
- IC50 [4]: 0.7 nM

Molecule: COC[C@@H]1CN(c2ccc3c(c2)N2C[C@@H]4CC[C@H](COc5c(cnn5C)-c5cc(cc(C)n5)C(=O)/N=C/2N3)C4)CCN1CC1CN(c2ccc3c(c2)CN(C2CCC(=O)NC2=O)C3=O)C1 (stereo partly drawn) [Example 63, 3-(5-(3-(((S)-4-((7^1R,7^3S,E)-1^1,2^6-dimethyl-3-oxo-5^2,5^3-dihydro-1^1H,5^1H-9-oxa-4-aza-5(2,1)-benzo[d]imidazola-2(2,4)-pyridina-1(4,5)-pyrazola-7(1,3)-cyclopentanacyclononaphane-5^6-yl)-2-(methoxymethyl)piperazin-1-yl)methyl)azetidin-1-yl)-1-oxoisoindolin-2-yl)piperidine-2,6-dione]
- DC50 [1]: 0.55 nM
- Dmax [1, 5]: 90%
- DC50 [2]: 0.61 nM
- Dmax [2, 5]: 60.9%
- Imax (%) [3]: 103%
- IC50 [3]: 0.2 nM
- Imax (%) [4]: 100.6%
- IC50 [4]: 0.2 nM

Molecule: COC[C@H]1CN(c2ccc3c(c2)N2C[C@@H]4CC[C@H](COc5c(cnn5C)-c5cc(cc(C)n5)C(=O)/N=C/2N3)C4)CCN1C1CCN(c2cc(F)c([C@H]3CCC(=O)NC3=O)c(F)c2)CC1 [Example 64, (R)-3-(4-(4-((R)-4-((7^1R,7^3S,E)-1^1,2^6-dimethyl-3-oxo-5^2,5^3-dihydro-1^1H,5^1H-9-oxa-4-aza-5(2,1)-benzo[d]imidazola-2(2,4)-pyridina-1(4,5)-pyrazola-7(1,3)-cyclopentanacyclononaphane-5^6-yl)-2-(methoxymethyl)piperazin-1-yl)piperidin-1-yl)-2,6-difluorophenyl)piperidine-2,6-dione]
- DC50 [1]: 1.07 nM
- Dmax [1, 5]: 83.3%
- DC50 [2]: 1.87 nM
- Dmax [2, 5]: 70%
- Imax (%) [3]: 101.9%
- IC50 [3]: 3.2 nM
- Imax (%) [4]: 101.2%
- IC50 [4]: 0.7 nM
